Data set [1] has as its system 5-HT4 receptor. The note with it: known compound, as said in the art; cited from earlier work.
In data set [2] the target is T1, 5-HT4 receptor (Rattus norvegicus, UniProt Q62758).
T1 construct: a muscular sample of mucous membrane in esophgus exentrated from a rat; from tissue; host or cells: rat oesophagus, muscularis mucosae (isolated)
As to the kind of experiment: Agonisting action to 5-HT4 receptor: relaxation of carbachol-contracted muscular sample of mucous membrane of rat esophagus (Baxter et al.). It counts as cell-based. The following applies: carbachol contraction, read-out: P EC50 (negative logarithm of concentration causing 50% relaxation) (converted). The source says: (Agonisting action to 5-HT4 receptor)
Pharmacol.", Vol. 343, page 439 (1991)!.
Namely, a relaxation of the Test and Control compounds in various concentration showing to carbachol contradiction of a muscular sample of mucous membrane in esophgus exentrated from a rat was checked to calculate a concentration causing 50% relaxation and compared with its negative logarithm (P EC50).

The next data set has as its system dopamine D2 receptor. The note with it: rat, in vivo, po, 100 mg/kg. The source says:
The compounds obtained by Examples as well as known compound (Metoclopramide) were selected as Test and Control Compounds, respectively. The compound was orally administered to rats to observe for 2 days general symptoms including catalepsy and blepharoptosis due to antagonistic action of the compound to dopamine D2 receptor.

Structures can show the parent of a compound that is named as a salt.

The values that follow come from patent US5502209A, “Benzopyrancarboxamide derivatives, salts thereof, process for the preparation of same and use thereof” (Sanwa Kagaku Kenkyusho Co., Ltd., priority 1994, dated 1996).

T1 sequence (Q62758 whole entry): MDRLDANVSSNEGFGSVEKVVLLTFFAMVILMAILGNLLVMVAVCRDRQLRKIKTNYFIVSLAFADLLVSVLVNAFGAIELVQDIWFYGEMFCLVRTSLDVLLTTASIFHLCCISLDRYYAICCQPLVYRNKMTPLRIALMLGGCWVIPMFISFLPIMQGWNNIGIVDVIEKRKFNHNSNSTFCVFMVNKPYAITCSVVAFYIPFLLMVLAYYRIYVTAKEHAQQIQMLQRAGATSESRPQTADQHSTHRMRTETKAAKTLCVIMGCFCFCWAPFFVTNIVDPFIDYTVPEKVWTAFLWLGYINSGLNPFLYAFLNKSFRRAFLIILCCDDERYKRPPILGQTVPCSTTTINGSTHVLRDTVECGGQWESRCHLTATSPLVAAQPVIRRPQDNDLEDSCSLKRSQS

With `COc1cc(N)c(Cl)cc1C(=O)NC1CCN(CCCOc2ccc(F)cc2)CC1OC` (stereo not drawn) [Cisapride], in the data set with 5-HT4 receptor [1], the “agonisting action to 5-HT4 receptor” value was “strong agonisting action to 5-HT4 receptor”.

As to `Nc1c(Cl)cc(C(=O)NCCC23CCCN2CCC3)c2c1CCCO2` [Example 1, 5-Amino-N-2-(1-azabicyclo 3.3.0!octan-5-yl)ethyl!-6-chloro-3,4-dihydro-2H-1-benzopyran-8-carboxamide·1/2 fumarate], on 5-HT4 receptor [2], the EC50 was 0.00501 µM.

On to `CC1CCc2c(N)c(Cl)cc(C(=O)NCCC34CCCN3CCC4)c2O1` (stereo not drawn) [Example 2, 5-Amino-N-2-(1-azabicyclo 3.3.0!octan-5-yl)ethyl!-6-chloro-3,4-dihydro-2-methyl-2H-1-benzopyran-8-carboxamide·1/2 fumarate], for which the EC50 on 5-HT4 receptor [2] was 0.02 µM.

With `Nc1c(Cl)cc(C(=O)NCCC23CCCN2CCC3)c2c1C=CCO2` [Example 3, 5-Amino-N-2-(1-azabicyclo 3.3.0!octan-5-yl)ethyl!-6-chloro-2H-1-benzopyran-8-carboxamide·1/2 fumarate], the EC50 at 5-HT4 receptor [2] was 0.0251 µM.

For the compound `O=C(NCCC12CCCN1CCC2)c1cccc2c1OCCC2` [Example 4, N-2-(1-Azabicyclo 3.3.0!octan-5-yl)ethyl!-3,4-dihydro-2H-1-benzopyran-8-carboxamide·1/2 fumarate], the EC50 on 5-HT4 receptor [2] is 12.6 µM.

Regarding `O=C(NCCC12CCCN1CCC2)c1ccc(Cl)c2c1OCCC2` [Example 5, N-2-(1-Azabicyclo 3.3.0!octan-5-yl)ethyl!-3,4-dihydro-5-chloro-2H-1-benzopyran-8-carboxamide· fumarate], on 5-HT4 receptor [2], the EC50 is 25.1 µM.

As for `O=C(NCCC12CCCN1CCC2)c1cc(Cl)cc2c1OCCC2` [Example 6, N-2-(1-Azabicyclo 3.3.0!octan-5-yl)ethyl!-3,4-dihydro-6-chloro-2H-1-benzopyran-8-carboxamide·1/2 fumarate], the EC50 at 5-HT4 receptor [2] was 12.6 µM.

Regarding `COc1cc2c(c(C(=O)NCCC34CCCN3CCC4)c1)OCCC2` [Example 7, N-2-(1-Azabicyclo 3.3.0!octan-5-yl)ethyl!-3,4-dihydro-6-methoxy-2H-1-benzopyran-8-carboxamide·1/2 fumarate], at 5-HT4 receptor [2], the EC50 is 25.1 µM.

Consider `Cc1ccc(C(=O)NCCC23CCCN2CCC3)c2c1CCCO2` [Example 8, N-2-(1-Azabicyclo 3.3.0!octan-5-yl)ethyl!-3,4-dihydro-5-methyl-2H-1-benzopyran-8-carboxamide·1/2 fumarate], for which, at 5-HT4 receptor [2], the EC50 is 20 µM.

With `Cc1cc2c(c(C(=O)NCCC34CCCN3CCC4)c1)OCCC2` [Example 9, N-2-(1-Azabicyclo 3.3.0!octan-5-yl)ethyl!-3,4-dihydro-6-methyl-2H-1-benzopyran-8-carboxamide·1/2 fumarate], the EC50 on 5-HT4 receptor [2] was 15.8 µM.

As for `CC(=O)Nc1c(Cl)cc(C(=O)NCCC23CCCN2CCC3)c2c1CCCO2` [Example 10, 5-Acetylamino-N-2-(1-azabicyclo 3.3.0!octan-5-yl)ethyl!-6-chloro-3,4-dihydro-2H-1-benzopyran-8-carboxamide· fumarate], the EC50 on 5-HT4 receptor [2] is 7.94 µM.

For `CCN(CC)CCNC(=O)c1cc(Cl)c(N)cc1OC` [Metoclopramide, 4-amino-5-chloro-N-(2-diethylamino)ethyl!-2-methoxybenzamide], the “influence to central nerve system due to anti-dopamine action” value in the data set with dopamine D2 receptor is recorded as “somewhat remarkable influence was recognized”.
